# Assay results as given in US6528275B1, “Substrates and inhibitors of proteolytic enzymes” (Peptide Therapeutics Limited, priority 1996, dated 2003).
# Non-standard residues stand in square brackets, D forms with d. Residues, ends and D or L forms follow the SMILES beside them. *: point of attachment. Tyr(3-NO2) = N[C@@H](Cc1ccc(O)c([N+](=O)[O-])c1)C(=O)O; Benzoyl(2-COOH) = O=C(O)c1ccccc1C(=O)*; 3Pal = N[C@@H](Cc1cccnc1)C(=O)O; Tic = O=C(O)[C@@H]1Cc2ccccc2CN1; Cha = N[C@@H](CC1CCCCC1)C(=O)O; hLeu = CC(C)CC[C@H](N)C(=O)O; Nle = CCCC[C@H](N)C(=O)O; 2Abz = Nc1ccccc1C(=O)O; Piv = CC(C)(C)C(=O)*; Bz = O=C(c1ccccc1)*; Ahx = NCCCCCC(=O)O
# Experiments:
# Test in all cases: Der pI substrate assay with FRET peptides (fluorescence, Km, kcat/Km)
# Assay type in all cases: biochemical, house dust mite
# [1] = biological target: T1, Der pI (Dermatophagoides pteronyssinus, UniProt P08176); details: purified Der pI; peptides SEQ ID Nos. 1-76; read-out: Measured Km
# T1 construct: tissue SmithKline-Beecham, U.K (crude mite extract); host or cells: crude house dust mite extract
# T1 sequence (P08176 99-320): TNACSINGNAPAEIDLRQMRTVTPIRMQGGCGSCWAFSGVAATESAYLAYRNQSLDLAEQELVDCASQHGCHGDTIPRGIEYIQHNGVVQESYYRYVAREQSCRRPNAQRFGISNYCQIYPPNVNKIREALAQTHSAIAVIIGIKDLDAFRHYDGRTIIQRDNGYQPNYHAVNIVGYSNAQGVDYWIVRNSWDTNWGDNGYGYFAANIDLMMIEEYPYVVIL
# Method: (§1) Using the general techniques described above, the following compounds were prepared and assayed as potential substrates against Der pI purified as described above.
# (§2) Each mixture of 20 compounds in the libraries of the apparatus described herein was screened at a concentration of 1.0 μM per compound in an assay against the cysteinyl protease Der pI.
# (§3) Plate assays were carried out in 96 well plate format, using 0.1 ug of Der pI per 100 μL assay volume in each well and using 20 μM of the substrate. All assays were performed in Assay Buffer (AB; 50 mM potassium phosphate, pH 8.25 containing 1 mM ethylenediaminetetraacetic acid (EDTA) and 1 mM dithiothreitol (DTT). The Der pI enzyme is pre-activated by addition of DTT and this in incubated at room temperature for 5 min. prior to initiation of the assay. As an example for the screening methodology, each well contains a 5 μL of a 20 μM solution of the test compound in DMSO, 10 μL of a 200 μM aqueous solution of the substrate, 2, and 85 μL of Der pI in AB is added to initiate the reaction. Enzyme activity is monitored by fluorescence using 320 nm for excitation and 420 nm for the emission wavelengths using a Labsystems Fluroskan Ascent machine. Kinetic measurements were carried out using a Hitachi F-4500 Fluorescence Spectrophotometer.
# [2] = biological target: T1, Der pI; design: key: NS indicates that the peptide was not hydrolysed by Der pI.; NM indicated that the peptide was a substrate for Der pI, but the Km was not measured.; NM^a indicates that the peptide was a substrate for Der pI, and its cleavage was followed by HPLC-MS showing hydrolysis to occur between-Nle-Ser-; details: purified Der pI; peptides SEQ ID Nos. 1-76
# Method: as §1, §2, §3
# [3] = biological target: T1, Der pI; design: key: NS-Not Substrate: Not hydrolysed by Der pI; NM-Substrate but not measured: Substrate for Der pI but not measured; details: purified Der pI; peptides SEQ ID Nos. 77-85
# Method: as §1, §2, §3
compound,measurement,setting,value
CC(C)CC[C@H](NC(=O)[C@H](C)NC(=O)[C@H](Cc1cccnc1)NC(=O)c1ccccc1N)C(=O)N[C@@H](CO)C(=O)N[C@@H](Cc1ccc(O)c([N+](=O)[O-])c1)C(=O)N[C@@H](CC(=O)O)C(N)=O [Abz-3pyr-Ala-hLeu-Ser-Tyr(NO2)-Asp-NH2] (H-[2Abz][3Pal]A[hLeu]S[Tyr(3-NO2)]D-NH2),Km,[1],> 10 µM
CC(C)CC[C@H](NC(=O)[C@H](C)NC(=O)[C@H](CCCCN)NC(=O)c1ccccc1N)C(=O)N[C@@H](CO)C(=O)N[C@@H](Cc1ccc(O)c([N+](=O)[O-])c1)C(=O)N[C@@H](CC(=O)O)C(N)=O [Abz-Lys-Ala-hLeu-Ser-Tyr(NO2)-Asp-NH2] (H-[2Abz]KA[hLeu]S[Tyr(3-NO2)]D-NH2),Km,[1],> 15 µM
CC(C)[C@H](NC(=O)c1ccccc1N)C(=O)N[C@@H](C)C(=O)N[C@@H](Cc1c[nH]cn1)C(=O)N[C@@H](CO)C(=O)N[C@@H](Cc1ccc(O)c([N+](=O)[O-])c1)C(=O)N[C@@H](CC(=O)O)C(N)=O [Abz-Val-Ala-His-Ser-Tyr(NO2)-Asp-NH2] (H-[2Abz]VAHS[Tyr(3-NO2)]D-NH2),Km,[1],> 20 µM
CCCC[C@H](NC(=O)[C@H](C)NC(=O)[C@@H](NC(=O)c1ccccc1N)C(C)C)C(=O)N[C@@H](CO)C(=O)N[C@@H](Cc1ccc(O)cc1)C(=O)N[C@@H](CC(=O)O)C(N)=O [Abz-Val-Ala-Nle-Ser-Tyr-Asp-NH2] (H-[2Abz]VA[Nle]SYD-NH2),substrate or not substrate for Der pI (symbols in Measured Km),[2],NM
CCCC[C@H](NC(=O)[C@H](C)NC(=O)[C@@H](NC(=O)c1ccccc1N)C(C)C)C(=O)N[C@@H](CO)C(=O)NCCCCCC(=O)N[C@@H](CC(=O)O)C(N)=O [Abz-Val-Ala-Nle-Ser-eAHA-Asp-NH2] (H-[2Abz]VA[Nle]S[Ahx]D-NH2),substrate or not substrate for Der pI (symbols in Measured Km),[2],NM
CC(C)CC[C@H](NC(=O)[C@H](CC1CCCCC1)NC(=O)[C@@H](NC(=O)c1ccccc1N)C(C)C)C(=O)N[C@@H](CO)C(=O)N[C@@H](Cc1ccc(O)c([N+](=O)[O-])c1)C(=O)N[C@@H](CC(=O)O)C(N)=O [Abz-Val-Cha-hLeu-Ser-Tyr(NO2)-Asp-NH2] (H-[2Abz]V[Cha][hLeu]S[Tyr(3-NO2)]D-NH2),substrate or not substrate for Der pI (symbols in Measured Km),[2],NS
CC(C)CC[C@H](NC(=O)[C@@H](C)NC(=O)[C@@H](NC(=O)c1ccccc1N)C(C)C)C(=O)N[C@@H](CO)C(=O)N[C@@H](Cc1ccc(O)c([N+](=O)[O-])c1)C(=O)N[C@@H](CC(=O)O)C(N)=O [Abz-Val-DAla-hLeu-Ser-Tyr(NO2)-Asp-NH2] (H-[2Abz]V[dA][hLeu]S[Tyr(3-NO2)]D-NH2),substrate or not substrate for Der pI (symbols in Measured Km),[2],NS
CC(C)CC[C@H](NC(=O)[C@@H](CCCCN)NC(=O)[C@@H](NC(=O)c1ccccc1N)C(C)C)C(=O)N[C@@H](CO)C(=O)N[C@@H](Cc1ccc(O)c([N+](=O)[O-])c1)C(=O)N[C@@H](CC(=O)O)C(N)=O [Abz-Val-DLys-hLeu-Ser-Tyr(NO2)-Asp-NH2] (H-[2Abz]V[dK][hLeu]S[Tyr(3-NO2)]D-NH2),substrate or not substrate for Der pI (symbols in Measured Km),[2],NS
CC(C)CC[C@H](NC(=O)[C@@H]1Cc2ccccc2CN1C(=O)[C@@H](NC(=O)c1ccccc1N)C(C)C)C(=O)N[C@@H](CO)C(=O)N[C@@H](Cc1ccc(O)c([N+](=O)[O-])c1)C(=O)N[C@@H](CC(=O)O)C(N)=O [Abz-Val-Tic-hLeu-Ser-Tyr(NO2)-Asp-NH2] (H-[2Abz]V[Tic][hLeu]S[Tyr(3-NO2)]D-NH2),substrate or not substrate for Der pI (symbols in Measured Km),[2],NS
CCCC[C@H](NC(=O)[C@H](C)NC(=O)[C@@H](NC(C)=O)C(C)C)C(=O)N[C@@H](CO)C(=O)N[C@@H](Cc1ccc(O)c([N+](=O)[O-])c1)C(=O)N[C@@H](CC(=O)O)C(N)=O [Ac-Val-Ala-Nle-Ser-Tyr(NO2)-Asp-NH2] (Ac-VA[Nle]S[Tyr(3-NO2)]D-NH2),substrate or not substrate for Der pI (symbols in Measured Km),[2],NS
CCCC[C@H](NC(=O)[C@H](C)NC(=O)[C@@H](NC(C)=O)C(C)C)C(=O)N[C@@H](CO)C(=O)N[C@@H](Cc1ccc(O)c([N+](=O)[O-])c1)C(N)=O [Ac-Val-Ala-Nle-Ser-Tyr(NO2)-NH2] (Ac-VA[Nle]S[Tyr(3-NO2)]-NH2),substrate or not substrate for Der pI (symbols in Measured Km),[2],NS
CCCC[C@H](NC(=O)[C@H](C)NC(=O)[C@@H](NC(=O)c1ccccc1C(=O)O)C(C)C)C(=O)N[C@@H](CO)C(=O)N[C@@H](Cc1ccc(O)c([N+](=O)[O-])c1)C(N)=O [Bz(2-carboxy)-Val-Ala-Nle-Ser-Tyr(NO2)-NH2] ({Benzoyl(2-COOH)}-VA[Nle]S[Tyr(3-NO2)]-NH2),substrate or not substrate for Der pI (symbols in Measured Km),[2],NM^a
CCCC[C@H](NC(=O)[C@H](C)NC(=O)[C@@H](NC(=O)c1ccccc1)C(C)C)C(=O)N[C@@H](CO)C(=O)N[C@@H](Cc1ccc(O)c([N+](=O)[O-])c1)C(N)=O [Bz-Val-Ala-Nle-Ser-Tyr(NO2)-NH2] (Bz-VA[Nle]S[Tyr(3-NO2)]-NH2),substrate or not substrate for Der pI (symbols in Measured Km),[2],NM^a
CCCC[C@H](NC(=O)[C@H](C)N)C(=O)N[C@@H](CO)C(=O)N[C@@H](Cc1ccc(O)c([N+](=O)[O-])c1)C(=O)N[C@@H](CC(=O)O)C(N)=O [H-Ala-Nle-Ser-Tyr(NO2)-Asp-NH2] (H-A[Nle]S[Tyr(3-NO2)]D-NH2),substrate or not substrate for Der pI (symbols in Measured Km),[2],NS
CCCC[C@H](NC(=O)[C@H](C)NC(=O)[C@@H](N)C(C)C)C(=O)N[C@@H](CO)C(=O)N[C@@H](Cc1ccc(O)c([N+](=O)[O-])c1)C(N)=O [H-Val-Ala-Nle-Ser-Tyr(NO2)-NH2] (H-VA[Nle]S[Tyr(3-NO2)]-NH2),substrate or not substrate for Der pI (symbols in Measured Km),[2],NS
CCCC[C@H](NC(=O)[C@H](C)NC(=O)[C@@H](N)C(C)C)C(=O)N[C@@H](CO)C(=O)N[C@@H](Cc1ccc(O)c([N+](=O)[O-])c1)C(=O)N[C@@H](CC(=O)O)C(N)=O [H-Val-Ala-Nle-Ser-TyrNO2-Asp-NH2] (H-VA[Nle]S[Tyr(3-NO2)]D-NH2),substrate or not substrate for Der pI (symbols in Measured Km),[2],NS
CCCC[C@H](NC(=O)[C@H](C)NC(=O)[C@@H](NC(=O)C(C)(C)C)C(C)C)C(=O)N[C@@H](CO)C(=O)N[C@@H](Cc1ccc(O)c([N+](=O)[O-])c1)C(N)=O [Piv-Val-Ala-Nle-Ser-Tyr(NO2)-NH2] (Piv-VA[Nle]S[Tyr(3-NO2)]-NH2),substrate or not substrate for Der pI (symbols in Measured Km),[2],NM^a
Abz-2.Naph-Val-Ala-Nle-Ser-Tyr(NO2)-Asp-NH2,substrate or not substrate for Der pI (symbols in Measured Km),[2],NM
Abz-3.Pyr-Val-Ala-Nle-Ser-Tyr(NO2)-Asp-NH2,substrate or not substrate for Der pI (symbols in Measured Km),[2],NM
Abz-Bip-Ala-hLeu-Abu-Tyr(NO2)-Asp-NH2,Km,[1],1.7 µM
Abz-Cmpi-Nle-Ser-Tyr(NO2)-Asp-NH2,substrate or not substrate for Der pI (symbols in Measured Km),[3],NS
Abz-Deg-Ala-Nle-Ser-Tyr(NO2)-Asp-NH2,substrate or not substrate for Der pI (symbols in Measured Km),[3],NS
Abz-Val-(NMe)Ala-Nle-Ser-Tyr(NO2)-Asp-NH2,substrate or not substrate for Der pI (symbols in Measured Km),[3],NS
Abz-Val-Aib-Nle-Ser-Tyr(NO2)-Asp-NH2,substrate or not substrate for Der pI (symbols in Measured Km),[3],NS
Abz-Val-Ala-(NMe)Nle-Ser-Tyr(NO2)-Asp-NH2,substrate or not substrate for Der pI (symbols in Measured Km),[3],NS
Abz-Val-Ala-Aib-Ser-Tyr(NO2)-Asp-NH2,substrate or not substrate for Der pI (symbols in Measured Km),[3],NS
Abz-p.Aba-Nle-Ser-Tyr(NO2)-Asp-NH2,substrate or not substrate for Der pI (symbols in Measured Km),[3],NS
Bz-Val-Ala-Statine-Ser-eAha-NH2,substrate or not substrate for Der pI (symbols in Measured Km),[3],NS
Chex-Val-Ala-Nle-Ser-Tyr(NO2)-NH2,substrate or not substrate for Der pI (symbols in Measured Km),[2],NM^a
n-Bu-Val-Ala-Nle-Ser-Tyr(NO2)-NH2,substrate or not substrate for Der pI (symbols in Measured Km),[2],NM^a
nBu-D.Ser-D.Nle-D.Ala-D.Val-p.Aba-NH2,substrate or not substrate for Der pI (symbols in Measured Km),[3],NS
